In ChEMBL document CHEMBL1159261, “New bioactive monotetrahydrofuran Annonaceous acetogenins, annomuricin C and muricatocin C, from the leaves of Annona muricata” (J Nat Prod, 1995):
Values after ≈ are worked out from the molar mass of the structure shown.

How the values were obtained:
[1] = Toxicity against brine shrimp; format: organism-based; conditions: artemia, in vivo; read-out: LD50 (the source's name)
A549 = experiment: Cytotoxicity against human A549 cells after 7 days by MTT assay; format: functional; conditions: A549, 168 h, read-out: ED50 (the source's name)
HT-29 = experiment: Cytotoxicity against human HT-29 cells after 7 days by MTT assay; format: functional; conditions: HT-29, 168 h, read-out: ED50 (the source's name)
MCF7 = experiment: Cytotoxicity against human MCF7 cells after 7 days by MTT assay; format: functional; conditions: MCF7, 168 h, read-out: ED50 (the source's name)

SMILES | LC50 [1] | EC50 (A549) | EC50 (HT-29) | EC50 (MCF7)
CCCCCCCCCCCC[C@@H](O)[C@H]1CC[C@H]([C@H](O)CCC[C@@H]2OC(C)(C)O[C@@H]2CCCCC[C@@H](O)CC2=C[C@H](C)OC2=O)O1 | 0.235 µg/mL (≈ 0.36 µM) | 0.0698 µg/mL (≈ 0.107 µM) | 1.41 µg/mL (≈ 2.16 µM) | 0.00481 µg/mL (≈ 0.00737 µM)
CCCCCCCCCCCC[C@@H](O)[C@H]1CC[C@H]([C@H](O)CC[C@@H]2C[C@@H](CCCCC[C@@H](O)CC3=C[C@H](C)OC3=O)OC(C)(C)O2)O1 | 0.189 µg/mL (≈ 0.289 µM) | 0.00376 µg/mL (≈ 0.00576 µM) | 0.261 µg/mL (≈ 0.4 µM) | 0.00398 µg/mL (≈ 0.0061 µM)
CCCCCCCCCCCC[C@@H](O)[C@H]1CC[C@H]([C@H](O)CCC[C@H](O)[C@@H](O)CCCCC[C@@H](O)CC2=C[C@H](C)OC2=O)O1 [ANNOMURICIN C] | 0.613 µg/mL (≈ 1 µM) | 0.308 µg/mL (≈ 0.503 µM) | 1.54 µg/mL (≈ 2.51 µM) | 0.228 µg/mL (≈ 0.372 µM)
COc1cccc2c1C(=O)c1c(O)c3c(c(O)c1C2=O)C[C@@](O)(C(=O)CO)C[C@@H]3O[C@H]1C[C@H](N)[C@H](O)[C@H](C)O1 [DOXORUBICIN] | – | – | 0.0348 µg/mL (≈ 0.064 µM) | 0.106 µg/mL (≈ 0.195 µM)
CCCCCCCCCCCC[C@@H](O)[C@H]1CC[C@H]([C@H](O)CC[C@@H](O)C[C@H](O)CCCCC[C@@H](O)CC2=C[C@H](C)OC2=O)O1 [MURICATOCIN C] | 0.604 µg/mL (≈ 0.985 µM) | 0.0909 µg/mL (≈ 0.148 µM) | 1.48 µg/mL (≈ 2.41 µM) | 0.0645 µg/mL (≈ 0.105 µM)
